Reference: patent US7118895B2, “Process for producing aglycon by using diglycosidase and flavor-improved food containing the aglycon and converting agent to be used in the process” (Amano Enzyme Inc., priority 2000, dated 2006)

System: Crude diglycosidase
Test: Examination of pH in the conversion into isoflavone aglycons by diglycosidase using soybean materials
Format: biochemical, Penicillium multicolor IAM7153
Settings: for Decomposition efficiency of glycitin family in roasted soy flour / Decomposition efficiency of glycitin family in soymilk: 55° C.
Experimental: A substrate solution of 450 μL was prepared by suspending 50 mg of each soybean material (roasted soy flour (manufactured by Fuji Shokuryo K.K.), soymilk (manufactured by Gitoh Shokuhin K.K.), defatted soybean (manufactured by Fuji Seiyu K.K.), concentrated soybean protein (manufactured by Fuji Seiyu K.K.)), and adjusting the pH to 2 to 11 with hydrochloric acid or sodium hydroxide. Each enzyme solution of pH 2–11 wherein diglycosidase activity of crude diglycosidase was adjusted to 1.88 AU/mL was added thereto in an amount of 50 μL and the whole was reacted at 55° C. at the total volume of 500 μL. To the reaction mixture was added 700 μL of ethanol after 0, 1, 3, and 6 hours of the reaction. After stirring and ultrasonication, the mixture was subjected to centrifugal separation at 15,000 rpm and 4° C. for 10 minutes. The supernatant was filtered through a filter and the existence of isoflavone glycosides and aglycon isoflavones contained in the reaction mixture was detected by HLPC (Tables 15 to 26).

[1] = pH6.6, heat treatment of enzyme: no, reaction time 0 h
[2] = pH6.6, heat treatment of enzyme: no, reaction time 1 h
[3] = pH6.6, heat treatment of enzyme: no, reaction time 3 h
[4] = pH6.6, heat treatment of enzyme: no, reaction time 6 h
[5] = pH6.6, heat treatment of enzyme: yes, reaction time 6 h

Compound: COc1cc2c(=O)c(-c3ccc(O)cc3)coc2cc1O[C@@H]1O[C@H](COC(C)=O)[C@@H](O)[C@H](O)[C@H]1O [acetylglycitin, 6″-O-acetylglycitin]
- Decomposition efficiency of glycitin family in roasted soy flour (pH5, heat treatment of enzyme no, reaction time 0 h): 34.8
- Decomposition efficiency of glycitin family in roasted soy flour (pH5, heat treatment of enzyme no, reaction time 1 h): 22.9
- Decomposition efficiency of glycitin family in roasted soy flour (pH5, heat treatment of enzyme no, reaction time 3 h): 6.5
- Decomposition efficiency of glycitin family in roasted soy flour (pH5, heat treatment of enzyme no, reaction time 6 h): not detected
- Decomposition efficiency of glycitin family in roasted soy flour (pH5, heat treatment of enzyme yes, reaction time 6 h): 35.2
- Decomposition efficiency of glycitin family in concentrated soybean protein (pH5.1, heat treatment of enzyme: no, reaction time 0 h): 36.1%
- Decomposition efficiency of glycitin family in concentrated soybean protein (pH5.1, heat treatment of enzyme: no, reaction time 1 h): 33.2%
- Decomposition efficiency of glycitin family in concentrated soybean protein (pH5.1, heat treatment of enzyme: no, reaction time 3 h): 26.0%
- Decomposition efficiency of glycitin family in concentrated soybean protein (pH5.1, heat treatment of enzyme: no, reaction time 6 h): 21.0%
- Decomposition efficiency of glycitin family in concentrated soybean protein (pH5.1, heat treatment of enzyme: yes, reaction time 6 h): 35.8%
- Decomposition efficiency of glycitin family in defatted soybean (pH5.4, heat treatment of enzyme: no, reaction time 0 h): not detected
- Decomposition efficiency of glycitin family in defatted soybean (pH5.4, heat treatment of enzyme: no, reaction time 1 h): not detected
- Decomposition efficiency of glycitin family in defatted soybean (pH5.4, heat treatment of enzyme: no, reaction time 3 h): not detected
- Decomposition efficiency of glycitin family in defatted soybean (pH5.4, heat treatment of enzyme: no, reaction time 6 h): not detected
- Decomposition efficiency of glycitin family in defatted soybean (pH5.4, heat treatment of enzyme: yes, reaction time 6 h): not detected
- Decomposition efficiency of glycitin family in soymilk (pH6.2, heat treatment of enzyme no, reaction time 0 h): not detected
- Decomposition efficiency of glycitin family in soymilk (pH6.2, heat treatment of enzyme no, reaction time 1 h): not detected
- Decomposition efficiency of glycitin family in soymilk (pH6.2, heat treatment of enzyme no, reaction time 3 h): not detected
- Decomposition efficiency of glycitin family in soymilk (pH6.2, heat treatment of enzyme no, reaction time 6 h): not detected
- Decomposition efficiency of glycitin family in soymilk (pH6.2, heat treatment of enzyme yes, reaction time 6 h): not detected
- Decomposition efficiency of glycitin family in roasted soy flour (pH6.5, heat treatment of enzyme no, reaction time 0 h): 35.4
- Decomposition efficiency of glycitin family in roasted soy flour (pH6.5, heat treatment of enzyme no, reaction time 1 h): 35.0
- Decomposition efficiency of glycitin family in roasted soy flour (pH6.5, heat treatment of enzyme no, reaction time 3 h): 19.7
- Decomposition efficiency of glycitin family in roasted soy flour (pH6.5, heat treatment of enzyme no, reaction time 6 h): 11.9
- Decomposition efficiency of glycitin family in roasted soy flour (pH6.5, heat treatment of enzyme yes, reaction time 6 h): 35.4
- Decomposition efficiency of glycitin family in concentrated soybean protein [1]: 36.1%
- Decomposition efficiency of glycitin family in defatted soybean [1]: not detected
- Decomposition efficiency of glycitin family in concentrated soybean protein [2]: 34.8%
- Decomposition efficiency of glycitin family in defatted soybean [2]: not detected
- Decomposition efficiency of glycitin family in concentrated soybean protein [3]: 32.4%
- Decomposition efficiency of glycitin family in defatted soybean [3]: not detected
- Decomposition efficiency of glycitin family in concentrated soybean protein [4]: 29.5%
- Decomposition efficiency of glycitin family in defatted soybean [4]: not detected
- Decomposition efficiency of glycitin family in concentrated soybean protein [5]: 35.2%
- Decomposition efficiency of glycitin family in defatted soybean [5]: not detected
- Decomposition efficiency of glycitin family in soymilk (pH7.2, heat treatment of enzyme no, reaction time 0 h): not detected
- Decomposition efficiency of glycitin family in soymilk (pH7.2, heat treatment of enzyme no, reaction time 1 h): not detected
- Decomposition efficiency of glycitin family in soymilk (pH7.2, heat treatment of enzyme no, reaction time 3 h): not detected
- Decomposition efficiency of glycitin family in soymilk (pH7.2, heat treatment of enzyme no, reaction time 6 h): not detected
- Decomposition efficiency of glycitin family in soymilk (pH7.2, heat treatment of enzyme yes, reaction time 6 h): not detected
- Decomposition efficiency of glycitin family in defatted soybean (pH7.8, heat treatment of enzyme: no, reaction time 0 h): not detected
- Decomposition efficiency of glycitin family in defatted soybean (pH7.8, heat treatment of enzyme: no, reaction time 1 h): not detected
- Decomposition efficiency of glycitin family in defatted soybean (pH7.8, heat treatment of enzyme: no, reaction time 3 h): not detected
- Decomposition efficiency of glycitin family in defatted soybean (pH7.8, heat treatment of enzyme: no, reaction time 6 h): not detected
- Decomposition efficiency of glycitin family in defatted soybean (pH7.8, heat treatment of enzyme: yes, reaction time 6 h): not detected
- Decomposition efficiency of glycitin family in roasted soy flour (pH8.5, heat treatment of enzyme no, reaction time 0 h): 31.0
- Decomposition efficiency of glycitin family in roasted soy flour (pH8.5, heat treatment of enzyme no, reaction time 1 h): 32.4
- Decomposition efficiency of glycitin family in roasted soy flour (pH8.5, heat treatment of enzyme no, reaction time 3 h): 30.6
- Decomposition efficiency of glycitin family in roasted soy flour (pH8.5, heat treatment of enzyme no, reaction time 6 h): 30.2
- Decomposition efficiency of glycitin family in roasted soy flour (pH8.5, heat treatment of enzyme yes, reaction time 6 h): 31.7
- Decomposition efficiency of glycitin family in concentrated soybean protein (pH8.6, heat treatment of enzyme: no, reaction time 0 h): 33.0%
- Decomposition efficiency of glycitin family in concentrated soybean protein (pH8.6, heat treatment of enzyme: no, reaction time 1 h): 32.6%
- Decomposition efficiency of glycitin family in concentrated soybean protein (pH8.6, heat treatment of enzyme: no, reaction time 3 h): 32.6%
- Decomposition efficiency of glycitin family in concentrated soybean protein (pH8.6, heat treatment of enzyme: no, reaction time 6 h): 32.0%
- Decomposition efficiency of glycitin family in concentrated soybean protein (pH8.6, heat treatment of enzyme: yes, reaction time 6 h): 31.6%
- Decomposition efficiency of glycitin family in soymilk (pH11.6, heat treatment of enzyme no, reaction time 0 h): not detected
- Decomposition efficiency of glycitin family in soymilk (pH11.6, heat treatment of enzyme no, reaction time 1 h): not detected
- Decomposition efficiency of glycitin family in soymilk (pH11.6, heat treatment of enzyme no, reaction time 3 h): not detected
- Decomposition efficiency of glycitin family in soymilk (pH11.6, heat treatment of enzyme no, reaction time 6 h): not detected
- Decomposition efficiency of glycitin family in soymilk (pH11.6, heat treatment of enzyme yes, reaction time 6 h): not detected
